Consider 22 molecules from patent publication US5286737A, “Method for inhibiting aromatase” (Kureha Kagaku Kogyo Kabushiki Kaisha, priority 1992, dated 1994).

The first assay concerns the target T1, aromatase (Homo sapiens, UniProt P11511).
T1 construct: microsomes arising from human placenta (0.1 mg/ml, protein concentration); from tissue; host or cells: human placenta microsomes
T1 sequence (P11511 1-503): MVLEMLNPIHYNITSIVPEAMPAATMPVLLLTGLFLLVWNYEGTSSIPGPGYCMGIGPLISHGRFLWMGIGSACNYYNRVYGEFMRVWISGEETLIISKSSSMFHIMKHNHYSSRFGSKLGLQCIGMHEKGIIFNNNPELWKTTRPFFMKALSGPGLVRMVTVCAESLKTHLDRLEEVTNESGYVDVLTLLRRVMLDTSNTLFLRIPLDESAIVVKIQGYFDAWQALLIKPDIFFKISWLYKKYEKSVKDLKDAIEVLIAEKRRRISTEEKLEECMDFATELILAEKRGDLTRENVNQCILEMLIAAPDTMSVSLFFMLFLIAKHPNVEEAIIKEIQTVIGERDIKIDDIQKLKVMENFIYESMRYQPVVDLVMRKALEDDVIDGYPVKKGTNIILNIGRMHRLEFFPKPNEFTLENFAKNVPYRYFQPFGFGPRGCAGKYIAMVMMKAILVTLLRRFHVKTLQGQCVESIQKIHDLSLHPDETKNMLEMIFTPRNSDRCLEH
As to the kind of experiment: Aromatase inhibitory activity (H14COOH release from [19-14C]4-androstene-3,17-dione, human placenta microsomes).
Conditions: not given
The assay is classed as biochemical. How it is done:
The aromatase inhibitory activity was measured in the manner described by Covey, D. F., Biochem. and Biophys. Res. Commun., 157 (1) 81-86 (1988). The inhibitory activity of the aromatase with the compounds was evaluated in a 50% inhibitory concentration (IC50) of the aromatase activity.
Aromatase activity was measured in the manner described by Covey, D. F., Biochem. Biophys. Res. Commun. 157 (1), 81-86 (1988).
The inhibitory activity of the aromatase with the compounds was evaluated in 50% inhibitory concentration (IC50) of the aromatase.
An aromatase base was taken from microsomes of human placenta and [19-^14 C]4-androstene-3,17 dione was used as a substrate. H^14 COOH was released into a reaction mixture after aromatization and its radioactivity was measured to evaluate the aromatase activity.
The inhibitory activity of the aromatase and the concentration of the compounds were depicted in a graph from which the IC50 was calculated.
To a solution of phosphoric acid buffer, [19-^14 C]4-androstene-3,17-dione (1×10^-6 M, 2 kBq/ml), microsomes arising from human placenta (0.1 mg/ml, protein concentration), coenzyme (2×10^-3 M, […]), glucose-6-phosphoric acid (4×10^-3 M), and glucose-6-phosphoric acid dehydrogenase (4U/ml) were added and reacted under stirring at 37° C. for 30 min.
The compound that was dissolved in DMSO was added into the reaction mixture and the final concentration of MDSO was in the range of 0.1 to 0.55% by volume. Chloroform (5 ml) was then added into the reaction mixture to terminate the reaction and to allow for recovery of the H^14 COOH in a water layer. The collected water layer (0.1 ml) was added in liquid scintillation cocktail (Atomlight, duPont, 4 ml) to measure its radioactivity. 4-Hydroxyandrostenedione was used as a positive control.
Take `CC1(C)CCC(Cc2ccc(C(F)(F)F)cc2)C1(O)Cn1cncn1` (stereo not shown) [compound 18]: the IC50 worked out at 7.2 µM.

Take `CC1(C)CCC(Cc2ccc(C(F)(F)F)cc2)C1(O)Cn1ccnc1` (stereo not shown) [compound 19]: the IC50 turned out to be 5.5 µM.

The molecule `CC(C)c1ccc(CC2CCC(C)(C)C2(O)Cn2ccnc2)cc1` (stereo not shown) [compound 14] came in with an IC50 of 6 µM.

Take `OC1(Cn2cncn2)CCCC1Cc1ccc(F)cc1F` (stereo not shown) [Comp. No. 9, 2-(2,4-Difluorobenzyl)-1-(1,2,4-triazoly-1-yl-methyl)cyclopentanol]: the IC50 stood at 7.5 µM.

For `CC1(C)CCC(Cc2ccc(F)cc2F)C1(O)Cn1ccnc1` (stereo not shown) [compound 17], the IC50 was 0.4 µM.

`C[C@]12CCC(=O)C(O)=C1CC[C@@H]1[C@@H]2CC[C@]2(C)C(=O)CC[C@@H]12` [Control, 4-Hydroxyandrostenedione, reference compound] returned an IC50 of 20 µM.

The molecule `CC(C)(C)c1ccc(CC2CCC(C)(C)C2(O)Cn2ccnc2)cc1` (stereo not shown) [compound 12] showed an IC50 of 4.2 µM.

As for `CC(C)c1ccc(CC2CCC(C)(C)C2(O)Cn2cncn2)cc1` (stereo not shown) [compound 13], the IC50 came out at 8.4 µM.

Take `OC1(Cn2cncn2)CCCC1Cc1ccc(F)cc1` (stereo not shown) [Comp. No. 1, 2-(p-Fluorobenzyl)-1-(1,2,4-triazoly-1-yl-methyl)cyclopentanol]: the IC50 worked out at 3.5 µM.

`N#Cc1ccc(CC2CCCC2(O)Cn2cncn2)cc1` (stereo not shown) [compound 5] came in with an IC50 of 7.3 µM.

Turning to `CC(C)c1ccc(CC2CCCC2(O)Cn2cncn2)cc1` (stereo not shown) [compound 20], the IC50 was 4.3 µM.

`CC1(C)CCC(Cc2ccc(Cl)cc2)C1(O)Cn1ccnc1` (stereo not shown) [compound 16] had an IC50 of 0.3 µM.

`CC1(C)CCC(Cc2ccc(Cl)cc2)C1(O)Cn1cncn1` (stereo not shown) [compound 15] registered an IC50 of 4.7 µM.

For the molecule `CC(C)(C)c1ccc(CC2CCC(C)(C)C2(O)Cn2cncn2)cc1` (stereo not shown) [compound 11], the IC50 came out at 2.6 µM.

For the molecule `OC1(Cn2ccnc2)CCCC1Cc1ccc(Cl)cc1` (stereo not shown) [compound 4], the IC50 amounted to 5 µM.

Consider `OC1(Cn2cncn2)CCCC1Cc1ccc(Cl)cc1` (stereo not shown) [compound 3], for which the IC50 stood at 3.8 µM.

Take `OC1(Cn2ccnc2)CCCC1Cc1ccc(F)cc1F` (stereo not shown) [Comp. No. 10, 2-(2,4-Difluorobenzyl)-1-(imidazoly-1-yl-methyl)cyclopentanol]: the IC50 was 0.48 µM.

For `OC1(Cn2ccnc2)CCCC1Cc1ccc(F)cc1` (stereo not shown) [Comp. No. 2, 2-(-Fluorobenzyl)-1-(imidazoly-1-ylmethyl)cyclopentanol], the IC50 is 7 µM.

Staying with this assay, now noted: microsomes of human placenta, 0.1 mg/ml protein; substrate [19-14C]4-androstene-3,17-dione 1×10^-6 M; 37° C., 30 min; read-out: 50% inhibitory concentration (IC50) of the aromatase activity.
As to `CC(C)c1ccc(CC2CCCC2(O)Cn2ccnc2)cc1` (stereo not shown) [compound 21], the IC50 worked out at 6.3 µM.

Take `CC1(C)CCC(Cc2ccc(-c3ccccc3)cc2)C1(O)Cn1ccnc1` (stereo not shown) [compound 8]: the IC50 was determined as 4.1 µM.

Regarding `N#Cc1ccc(CC2CCCC2(O)Cn2ccnc2)cc1` (stereo not shown) [compound 6], the IC50 worked out at 4.5 µM.

As for `CC1(C)CCC(Cc2ccccc2-c2ccccc2)C1(O)Cn1ccnc1` (stereo not shown) [compound 7], the IC50 was 3.7 µM.

The next assay deals with mastocarcinoma. In words: Inhibition of tumor growth in rats with mastocarcinoma after 7,12-dimethylbenzanthracene. The assay is classed as in vivo, Sprague-Dawley rats. The note with it: Rattus norvegicus, 600 h; female Sprague-Dawley rats; daily ip 20 mg/kg for 20 consecutive days; tumors weighed 5 days after last injection; read-out: I.R. (inhibition rate of tumor growth). How it is done:
Female Sprague-Dawley rates aged 50 days were orally given 7,12-dimethylbenzanthracene (15 mg/kg) and observed for two months. The rats that developed spontaneous mastocarcinoma were selected and divided into three groups of 15 animals.
The first group was administered daily an ip injection for 20 consecutive days in an amount of 20 mg/kg (body weight) of the compounds in a physiological salt solution (10 ml).
The second group was also treated in the same manner as the first group except that 4-hydroxyandrostenedione was used as a positive control.
The third group was administered only an amount of 10 ml of a physiological salt solution.
After 5 days from the last injection, the rats were sacrificed to enucleate tumors.
The tumors were weighed and the mean tumor weight (T) of the first and the second groups was calculated. The mean tumor weight (C) of the third group was also calculated. […] [formula]
Turning to `CC1(C)CCC(Cc2ccc(C(F)(F)F)cc2)C1(O)Cn1cncn1` (stereo not shown) [compound 18], the inhibition in vivo at 20 mg/kg worked out at 65%.

Consider `CC1(C)CCC(Cc2ccc(C(F)(F)F)cc2)C1(O)Cn1ccnc1` (stereo not shown) [compound 19], for which the inhibition in vivo at 20 mg/kg was 63%.

With `CC(C)c1ccc(CC2CCC(C)(C)C2(O)Cn2ccnc2)cc1` (stereo not shown) [compound 14], the inhibition in vivo at 20 mg/kg amounted to 63%.

As to `CC(C)c1ccc(CC2CCCC2(O)Cn2ccnc2)cc1` (stereo not shown) [compound 21], the inhibition in vivo at 20 mg/kg came to 72%.

As for `OC1(Cn2cncn2)CCCC1Cc1ccc(F)cc1F` (stereo not shown) [Comp. No. 9, 2-(2,4-Difluorobenzyl)-1-(1,2,4-triazoly-1-yl-methyl)cyclopentanol], the inhibition in vivo at 20 mg/kg was determined as 72%.

On to `CC1(C)CCC(Cc2ccc(F)cc2F)C1(O)Cn1ccnc1` (stereo not shown) [compound 17], for which the inhibition in vivo at 20 mg/kg was found to be 67%.

For `CC1(C)CCC(Cc2ccc(-c3ccccc3)cc2)C1(O)Cn1ccnc1` (stereo not shown) [compound 8], the inhibition in vivo at 20 mg/kg turned out to be 60%.

Take `CC(C)(C)c1ccc(CC2CCC(C)(C)C2(O)Cn2ccnc2)cc1` (stereo not shown) [compound 12]: the inhibition in vivo at 20 mg/kg came out at 73%.

As to `CC(C)c1ccc(CC2CCC(C)(C)C2(O)Cn2cncn2)cc1` (stereo not shown) [compound 13], the inhibition in vivo at 20 mg/kg came to 55%.

For the molecule `OC1(Cn2cncn2)CCCC1Cc1ccc(F)cc1` (stereo not shown) [Comp. No. 1, 2-(p-Fluorobenzyl)-1-(1,2,4-triazoly-1-yl-methyl)cyclopentanol], the inhibition in vivo at 20 mg/kg is 60%.

Turning to `N#Cc1ccc(CC2CCCC2(O)Cn2cncn2)cc1` (stereo not shown) [compound 5], the inhibition in vivo at 20 mg/kg came to 60%.

`CC(C)c1ccc(CC2CCCC2(O)Cn2cncn2)cc1` (stereo not shown) [compound 20]: the inhibition in vivo at 20 mg/kg came out at 60%.

For the molecule `CC1(C)CCC(Cc2ccc(Cl)cc2)C1(O)Cn1ccnc1` (stereo not shown) [compound 16], the inhibition in vivo at 20 mg/kg turned out to be 83%.

For the molecule `CC(C)(C)c1ccc(CC2CCC(C)(C)C2(O)Cn2cncn2)cc1` (stereo not shown) [compound 11], the inhibition in vivo at 20 mg/kg is 71%.

Turning to `OC1(Cn2ccnc2)CCCC1Cc1ccc(Cl)cc1` (stereo not shown) [compound 4], the inhibition in vivo at 20 mg/kg stood at 74%.

Regarding `OC1(Cn2cncn2)CCCC1Cc1ccc(Cl)cc1` (stereo not shown) [compound 3], the inhibition in vivo at 20 mg/kg was found to be 64%.

`N#Cc1ccc(CC2CCCC2(O)Cn2ccnc2)cc1` (stereo not shown) [compound 6]: the inhibition in vivo at 20 mg/kg is 53%.

On to `CC1(C)CCC(Cc2ccccc2-c2ccccc2)C1(O)Cn1ccnc1` (stereo not shown) [compound 7], for which the inhibition in vivo at 20 mg/kg was 58%.

As for `OC1(Cn2ccnc2)CCCC1Cc1ccc(F)cc1F` (stereo not shown) [Comp. No. 10, 2-(2,4-Difluorobenzyl)-1-(imidazoly-1-yl-methyl)cyclopentanol], the inhibition in vivo at 20 mg/kg worked out at 85%.

As for `OC1(Cn2ccnc2)CCCC1Cc1ccc(F)cc1` (stereo not shown) [Comp. No. 2, 2-(-Fluorobenzyl)-1-(imidazoly-1-ylmethyl)cyclopentanol], the inhibition in vivo at 20 mg/kg was 70%.

The same assay, now with this note: Rattus norvegicus, ip, 600 h, read-out: I.R. (inhibition rate of tumor growth).
For the molecule `CC1(C)CCC(Cc2ccc(Cl)cc2)C1(O)Cn1cncn1` (stereo not shown) [compound 15], the inhibition in vivo at 20 mg/kg stood at 74%.
